Target: T1, HCV NS3 helicase NS3h_1b(con1) (Hepatitis C virus genotype 1b, UniProt Q9WMX2)
T1 construct: truncated C-terminally His-tagged NS3 proteins lacking the N-terminal protease, called NS3h; His-tag (C); made in house
Assay: MBHA screen of NCI mechanistic set library at 20 μM (percent inhibition, compound interference)
Format: biochemical
Settings: compounds at 20 μM; for Inh. (%) (Inhibition): calculated from Equation 1
How it was run: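 Molecular beacon-based DNA unwinding assay; compounds screened at 20 μM in triplicate, with DMSO-only negative and 500 nM dT20 positive controls. Fluorescence (ex 643/em 670 nm) was read before and 30 min after adding ATP to 1 mM. Percent inhibition came from the change relative to DMSO controls; interference from pre-ATP fluorescence versus DMSO controls.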

[1] = assay interference calculated with Equation 2 (fluorescence vs DMSO-only controls before ATP)
[2] = MBHA with DNA substrate, assay interference calculated with Equation 2

T1 sequence (Q9WMX2 1192-1657): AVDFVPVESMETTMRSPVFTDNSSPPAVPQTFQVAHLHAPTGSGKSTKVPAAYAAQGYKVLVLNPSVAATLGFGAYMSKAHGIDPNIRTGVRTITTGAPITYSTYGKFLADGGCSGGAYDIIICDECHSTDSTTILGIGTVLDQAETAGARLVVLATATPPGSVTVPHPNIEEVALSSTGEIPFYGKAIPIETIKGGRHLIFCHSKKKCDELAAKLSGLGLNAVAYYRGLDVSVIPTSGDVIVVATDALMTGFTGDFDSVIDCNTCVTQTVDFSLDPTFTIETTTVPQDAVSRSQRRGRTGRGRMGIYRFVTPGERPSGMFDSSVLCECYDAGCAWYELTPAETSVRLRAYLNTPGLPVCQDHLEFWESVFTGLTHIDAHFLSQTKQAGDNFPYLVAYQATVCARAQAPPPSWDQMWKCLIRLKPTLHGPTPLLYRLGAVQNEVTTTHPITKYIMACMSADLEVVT

| Inh. (%) (Inhibition) (MBHA with a DNA substrate) | Int.* (Ratio) (Interference) [1] | Int.* (Ratio) (Interference) [2] | Inh. (%) (Inhibition) (MBHA with DNA substrate) | Structure (SMILES) |
| --- | --- | --- | --- | --- |
| 8.9 | 0.82 |  |  | CC[C@@]1(O)C[C@H](O[C@H]2C[C@H](N(C)C)[C@H](O[C@H]3C[C@H](O)[C@H](O[C@H]4C[C@H](O)[C@H](O)[C@H](C)O4)[C@H](C)O3)[C@H](C)O2)c2c(cc3c(c2O)C(=O)c2c(O)ccc(O)c2C3=O)[C@H]1C(=O)OC [Compound 265211] |
| −19.9 | 0.91 |  |  | COC1C(O)=C2C(=O)OC(C)(O)/C=C/C=C\C=C/C=C/C(c3ccccc3)NC(=O)/C=C/C=C/C=C/C=C/C2(C)C1O (centres unmarked) [Compound 236657] |
| −3.4 | 0.95 |  |  | COc1ccc(/C=C2\N=C(c3ccccc3)OC2=O)c(OCc2ccccc2)c1 [Compound 262665] |
|  |  | 0.95 | 17.5 | CN(C)/N=N/c1nc[nH]c1C(N)=O [Compound 45388] |
|  |  | 0.93 | 15.8 | O=c1cccccc1O [Compound 89303] |
|  |  | 0.91 | −0.8 | CCCc1c(Cl)nc(Cl)nc1Cl [Compound 66914] |
|  |  | 0.98 | −2.8 | CC1=NN(C(=O)c2ccncc2)C(=O)C1N=Nc1ccc(F)cc1 (centres unmarked) [Compound 621094] |
| −5.3 | 1.07 |  |  | O=C1C=C(NCCc2ccccc2)c2ccccc2C1=O [Compound 637731] |
|  |  | 0.96 | −2.2 | CC(C)CCCC(=O)CCCCCCC(=O)CCN(O)C(=O)C(N)CO.O=S(=O)(O)O (centres unmarked) [Compound 106997] |
|  |  | 1.02 | −12.6 | CCOC(=O)Cc1c(C)c2cc(C(=O)c3ccccc3)c(O)cc2oc1=O [Compound 115538] |
|  |  | 0.90 | −14.8 | Cn1c(=O)c2nc3sc4c(n3c2n(C)c1=O)C(=O)c1ccccc1C4=O [Compound 634568] |
|  |  | 0.93 | 15.3 | Nc1nc(SCCc2ccccc2)c2[nH]cnc2n1 [Compound 35866] |
|  |  | 0.94 | 13.2 | COc1cc(NC(C)CCCN)c2ncccc2c1.O=P(O)(O)O.O=P(O)(O)O (centres unmarked) [Compound 149765] |
|  |  | 0.46 | −1.7 | O=C(O)/C=C\C(=O)O.[N-]=[N+]=Nc1ccc2c(c1)Sc1ccccc1N2CCCCN1CCN(Cc2ccc(C(=O)c3ccccc3)cc2)CC1 [Compound 676963] |
|  |  | 0.98 | −9.0 | NC(=S)NN=Cc1ncccc1O [Compound 95678] |
|  |  | 0.23 | 56.7 | COc1ccc2nc(C)cc(NCCCCCCCCCNc3cc(C)nc4ccc(OC)cc34)c2c1 [Compound 10010] |
| −4.0 | 1.04 |  |  | NC(=O)N/N=C1\CC2C3CC4C2C4C13 (centres unmarked) [Compound 673912] |
|  |  | 0.92 | 5.1 | CN1C(Cl)=NS(=O)(=O)c2ccccc21 [Compound 373853] |

| Inh. (%) (Inhibition) (MBHA with a DNA substrate) | Int.* (Ratio) (Interference) [1] | Int.* (Ratio) (Interference) [2] | Inh. (%) (Inhibition) (MBHA with DNA substrate) | Structure (SMILES) |
| --- | --- | --- | --- | --- |
|  |  | 1.02 | −0.6 | OC(CBr)C(O)C(O)C(O)CBr (centres unmarked) [Compound 616232] |
|  |  | 0.93 | −7.0 | BrC(/C=N/Nc1nnc(-c2ccccc2)c(-c2ccccc2)n1)C(Br)c1ccccc1 (centres unmarked) [Compound 640638] |
| −42.7 | 0.92 |  |  | CC1(C)N=C(N)N=C(N)N1c1ccc(CCCCc2ccc(Cl)cc2Cl)cc1 [Compound 104129] |
| −6.4 | 1.09 |  |  | O=C1C(Cl)=C(N2CCN(C3=C(Cl)C(=O)c4ccccc4C3=O)CC2)C(=O)c2ccccc21 [Compound 40341] |
|  |  | 0.92 | −1.8 | Cc1ccc([S+](c2ccccc2)c2cc(C)ccc2C)cc1.O=C(OC(C(=O)[O-])C(OC(=O)c1ccccc1)C(=O)O)c1ccccc1 (centres unmarked) [Compound 116693] |
|  |  | 0.89 | −13.7 | O=C(CC(=O)c1ccccc1NC1=Cc2ccccc2C(=O)C1=O)C(=O)NC1=C(Cl)C(=O)c2ccccc2C1=O [Compound 641245] |
|  |  | 0.88 | 3.5 | CC(=O)OC1CC(n2cc(F)c(=O)[nH]c2=O)OC1CO (centres unmarked) [Compound 407335] |
| −6.8 | 1.02 |  |  | N[C@H](C(=O)O)[C@H]1ON=C(Cl)[C@H]1O [Compound 176324] |
| 12.0 | 1.08 |  |  | CCC1=C(C[C@H]2NCCc3cc(OC)c(OC)cc32)C[C@H]2c3cc(OC)c(OC)cc3CCN2C1 [Compound 129414] |
| 10.9 | 1.09 |  |  | N#CC(=C1C=CC(=NO)C=C1)c1ccc(Cl)cc1 [Compound 405158] |
|  |  | 0.98 | 2.1 | Cc1cn(C2CC(O)C(CO)O2)c(=O)[nH]c1=O (centres unmarked) [Compound 21548] |
|  |  | 0.91 | 4.5 | O=C1C(CN2CCCCC2)CCCC1CN1CCCCC1 (centres unmarked) [Compound 39202] |
| 8.3 | 0.89 |  |  | Cl.Nc1ccn([C@@H]2O[C@H](CO)[C@@H](O)[C@@H]2O)c(=O)n1 [Compound 63878] |
| −4.0 | 0.96 |  |  | Nc1nc(-c2cccs2)cs1 [Compound 54297] |
|  |  | 0.89 | 0.4 | Nc1nc(Cl)nc2c1ncn2[C@H]1C[C@H](O)[C@@H](CO)O1 [Compound 105014] |
| −3.0 | 0.86 |  |  | S=C(Nc1ccccc1)N(/N=C/C=C/c1ccccc1)c1nnc(-c2ccccc2)c(-c2ccccc2)n1 [Compound 640637] |
|  |  | 0.97 | 1.1 | N#CCCN(CCC#N)c1ccc(/C=C2/N=C(c3cc([N+](=O)[O-])ccc3Cl)OC2=O)cc1 [Compound 637916] |

| Structure (SMILES) | Inh. (%) (Inhibition) (MBHA with a DNA substrate) | Int.* (Ratio) (Interference) [1] | Int.* (Ratio) (Interference) [2] | Inh. (%) (Inhibition) (MBHA with DNA substrate) |
| --- | --- | --- | --- | --- |
| CC[C@H]1CN2CCc3cc(OC)c(OC)cc3[C@@H]2C[C@@H]1C[C@H]1NCCc2cc(O)c(OC)cc21 [Compound 32944] | −28.9 | 1.02 |  |  |
| COC1CC(O[C@H]2CC[C@]3(C=O)[C@H]4CC[C@]5(C)[C@@H](C6=CC(=O)OC6)CC[C@]5(O)[C@@H]4CC[C@]3(O)C2)OC(C)C1O (some centres unmarked) [Compound 7522] | −24.0 | 0.97 |  |  |
| CC(=O)c1ccc(Oc2ccc(/C(C)=N/N=C(N)N)cc2)cc1.O=[N+]([O-])O [Compound 97911] | 11.5 | 0.95 |  |  |
| Cc1cc2c(C(C)C)c(O)c(O)c(C=O)c2c(O)c1-c1c(C)cc2c(C(C)C)c(O)c(O)c(C=O)c2c1O [Compound 56817] |  |  | 0.90 | −2.0 |
| O=c1[nH]c2ccccc2n1C1CCN(CCCC(c2ccc(F)cc2)c2ccc(F)cc2)CC1 [Compound 170984] |  |  | 0.95 | 4.7 |

Source: US9464064B2, “HCV helicase inhibitors and methods of use thereof” (University of Kansas, priority 2011, dated 2016)
